These results are taken from US20230146395A1, “Substituted Pyrimidines and Uses Thereof” (Verge Analytics, Inc., priority 2020, published 2023).

In experiment [1] the target is T1, Full length human recombinant PIKFYVE (Homo sapiens, UniProt Q9Y2I7).
T1 construct: Full length human recombinant PIKFYVE; purchased Carna Biosciences (Kobe, Japan); host or cells: baculovirus expression system
The experiment is described as follows: Inhibition of PIKfyve (microfluidic electrophoresis kinase assay, PI3P/PS substrate). In kind it is biochemical. Conditions: 12 concentrations. A digest of the protocol: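 Percent inhibition, from 12 concentrations, was derived from the product/(substrate+product) peak ratio separated by microfluidic electrophoresis, normalized to DMSO-only and enzyme-free controls. Reactions ran 3 h at room temperature: 2 nM N-terminal GST-PIKFYVE, 1 μM fluorescent PI3P in PS vesicles, […], HEPES pH 7.5, MgCl2/MnCl2.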

For experiment [2], the system named is ALS patient (SOD1 A4V) iPSC derived motor neurons. The experiment is described as follows: iPSC MN Survival assay (GFP imaging, six days, hazard ratio from Cox regression). In kind it is cell-based. To be noted: Homo sapiens, survival rescue, read-out: C9 iPSC MN Significant survival rescue EC50.
Experiment [3] concerns HEK 293T transfected with plasmids containing TDP-43 Q331K mutation. The experiment in a line: HEK/TDP Survival assay (Cell-Titer-Glo, 48 hrs, maximal effect of rescue). In kind it is cell-based. Conditions: Homo sapiens, HEK 293T with TDP-43 Q331K, (n) in brackets. The method, then: HEK/TDP Survival assay: Immortalized human embryonic kidney 293T (HEK 293T) were transfected with plasmids containing TDP-43 Q331K mutation, resulting in an increase in cell death that is biologically relevant to ALS patients. Cell death is measured as reductions in the amount of ATP, an indicator of metabolically active cells, that is quantified by a luminescence Cell-Titer-Glo® (CTG) reagent. Compounds are evaluated in this model for changes in CTG compared to a no treatment group. Increased signal indicates improved survival (rescue) and decreased signal indicates decreased survival.
Cell rescue was measured in a 96-well format with eight different concentrations of the test compound over 48 hours (hrs) with 6 replicates. The Promega Cell-Titer-Glo® Luminescent Cell Viability Assay was used to quantify ATP, an indicator of metabolically active cells (see protocol: https://www.promega.com/-/media/files/resources/protocols/technical-manuals/101/celltiterglo-2-0-assay-protocol.pdf?la=en). The luminescence signal was detected using the PerkinElmer EnVision or Molecular Devices SpectraMax.
The effect of a compound at a given dose on cell viability was determined using a three step procedure. First, Hedge's g for the Cell Titer-Glo luminescence values using six untreated wells on every plate as a control was calculated. […] Finally, values from all compound-dose pairs were corrected for multiple hypothesis testing using the Empirical Bayes framework of Stephens, M. (False discovery rates: a new deal, Biostatistics, 18 [2], 2017, 275-294) yielding credible intervals for the measured effect and associated s values.
Briefly, this method computes a local false sign rate for each experiment. Analogous to the local false discovery rate of Efron, B. (Size, power and false discovery rates, Ann. Statist. 35 [4], 2007, 1351-1377) this value measures the confidence in the sign of each effect (rather than confidence in each effect being non-zero). The s values reported in the previous figures are the expected fraction of errors if estimating the sign of all effects with greater absolute local false sign rate, defined in analogy to the q value of Storey, JD (The positive false discovery rate: a Bayesian interpretation and the q-value, Ann. Statist. 31 [6] 2003, 2013-2035).
Drugs that yielded signed log s values greater than 3 were considered hits. This threshold was determined by a separate calibration experiment in which Cell Titer-Glo® was measured in blank plates consisting of untreated cells to assess the noise inherent in the assay. Data are presented as the maximal effect of rescue obtained from the dose-response curve.

Another experiment concerns the target T2, PI3Kα (Homo sapiens, UniProt P42336).
T2 construct: Full-length N-terminal; FLAG (N); host or cells: SF9 cells (baculovirus)
The experiment is described as follows: Inhibition of PI3K isoforms: PI3Kα (microfluidic electrophoresis kinase assay, PIP2/PS substrate). In kind it is biochemical. Conditions: p110α/p85α, ATP 90 μM; read-out: PI3Ka IC50. On the procedure: The kinase substrate was prepared by mixing and sonicating fluorescently-labeled phosphatidylinositol 4,5-phosphate (PIP2) with phospho-L-serine (PS) at 1:20 ratio in 50 mM HEPES buffer pH7.5.
The kinase reactions were assembled in 384-well plates (Greiner) in a total volume of […] as follows. The kinase proteins were pre-diluted in an assay buffer comprising 50 mM HEPES, pH 7.5, 0.012% CHAPS, 1 mM DTT, 10 mM Na3VaO4, 10 mM 3-GP, 3 mM MgCl2, and 40 mM NaCl2, and dispensed into a 384-well plate (10 μL per well). Test compounds were serially pre-diluted in DMSO and added to the protein samples by acoustic dispensing (Labcyte Echo). The concentration of DMSO was equalized to 1% in all samples. All test compounds were tested at 12 concentrations. The control samples (0%-inhibition in the absence of inhibitor, DMSO only) and 100%-inhibition (in the absence of enzyme) were assembled in replicates of four and were used to calculate %-inhibition in the presence of test compounds. The reactions were initiated by addition of 10 μL of the PIP2/PS substrate supplemented with ATP. The final concentration of enzymes was 0.5 nM (PI3Kα), 1 nM (PI3Kβ), 10 nM (PI3Kγ), and 0.25 nM (PI3Kδ). The final concentration of ATP was 90 μM (PI3Kα), 60 μM (PI3Kβ), 100 μM (PI3Kγ), and 90 μM (PI3Kδ). The final concentration of PIP2/PS substrate was 1 μM (PIP2). The kinase reactions were allowed to proceed for 3 h at room temperature. Following incubation, the reactions were quenched by addition of 50 μL of termination buffer (100 mM HEPES, pH 7.5, 0.01% Triton X-100, 20 mM EDTA). Terminated plates were analyzed on a microfluidic electrophoresis instrument (Caliper LabChip® 3000, Caliper Life Sciences/Perkin Elmer). The change in the relative fluorescence intensity of the PI(4,5)P substrate and PI(3,4,5)P product peaks was measured. The activity in each test sample was determined as the product to sum ratio (PSR): P/(S+P), where P is the peak height of the product, and S is the peak height of the substrate. Percent inhibition (Pinh) was determined using the following equation:
Pinh=(PSR0% inh−PSRcompound)/(PSR0% inh−PSR100% inh)*100
in which PSRcompound is the product/sum ratio in the presence of compound, PSR0% inh is the product/sum ratio in the absence of compound, and the PSR100% inh is the product/sum ratio in the absence of the enzyme.

T1 sequence (Q9Y2I7 whole entry): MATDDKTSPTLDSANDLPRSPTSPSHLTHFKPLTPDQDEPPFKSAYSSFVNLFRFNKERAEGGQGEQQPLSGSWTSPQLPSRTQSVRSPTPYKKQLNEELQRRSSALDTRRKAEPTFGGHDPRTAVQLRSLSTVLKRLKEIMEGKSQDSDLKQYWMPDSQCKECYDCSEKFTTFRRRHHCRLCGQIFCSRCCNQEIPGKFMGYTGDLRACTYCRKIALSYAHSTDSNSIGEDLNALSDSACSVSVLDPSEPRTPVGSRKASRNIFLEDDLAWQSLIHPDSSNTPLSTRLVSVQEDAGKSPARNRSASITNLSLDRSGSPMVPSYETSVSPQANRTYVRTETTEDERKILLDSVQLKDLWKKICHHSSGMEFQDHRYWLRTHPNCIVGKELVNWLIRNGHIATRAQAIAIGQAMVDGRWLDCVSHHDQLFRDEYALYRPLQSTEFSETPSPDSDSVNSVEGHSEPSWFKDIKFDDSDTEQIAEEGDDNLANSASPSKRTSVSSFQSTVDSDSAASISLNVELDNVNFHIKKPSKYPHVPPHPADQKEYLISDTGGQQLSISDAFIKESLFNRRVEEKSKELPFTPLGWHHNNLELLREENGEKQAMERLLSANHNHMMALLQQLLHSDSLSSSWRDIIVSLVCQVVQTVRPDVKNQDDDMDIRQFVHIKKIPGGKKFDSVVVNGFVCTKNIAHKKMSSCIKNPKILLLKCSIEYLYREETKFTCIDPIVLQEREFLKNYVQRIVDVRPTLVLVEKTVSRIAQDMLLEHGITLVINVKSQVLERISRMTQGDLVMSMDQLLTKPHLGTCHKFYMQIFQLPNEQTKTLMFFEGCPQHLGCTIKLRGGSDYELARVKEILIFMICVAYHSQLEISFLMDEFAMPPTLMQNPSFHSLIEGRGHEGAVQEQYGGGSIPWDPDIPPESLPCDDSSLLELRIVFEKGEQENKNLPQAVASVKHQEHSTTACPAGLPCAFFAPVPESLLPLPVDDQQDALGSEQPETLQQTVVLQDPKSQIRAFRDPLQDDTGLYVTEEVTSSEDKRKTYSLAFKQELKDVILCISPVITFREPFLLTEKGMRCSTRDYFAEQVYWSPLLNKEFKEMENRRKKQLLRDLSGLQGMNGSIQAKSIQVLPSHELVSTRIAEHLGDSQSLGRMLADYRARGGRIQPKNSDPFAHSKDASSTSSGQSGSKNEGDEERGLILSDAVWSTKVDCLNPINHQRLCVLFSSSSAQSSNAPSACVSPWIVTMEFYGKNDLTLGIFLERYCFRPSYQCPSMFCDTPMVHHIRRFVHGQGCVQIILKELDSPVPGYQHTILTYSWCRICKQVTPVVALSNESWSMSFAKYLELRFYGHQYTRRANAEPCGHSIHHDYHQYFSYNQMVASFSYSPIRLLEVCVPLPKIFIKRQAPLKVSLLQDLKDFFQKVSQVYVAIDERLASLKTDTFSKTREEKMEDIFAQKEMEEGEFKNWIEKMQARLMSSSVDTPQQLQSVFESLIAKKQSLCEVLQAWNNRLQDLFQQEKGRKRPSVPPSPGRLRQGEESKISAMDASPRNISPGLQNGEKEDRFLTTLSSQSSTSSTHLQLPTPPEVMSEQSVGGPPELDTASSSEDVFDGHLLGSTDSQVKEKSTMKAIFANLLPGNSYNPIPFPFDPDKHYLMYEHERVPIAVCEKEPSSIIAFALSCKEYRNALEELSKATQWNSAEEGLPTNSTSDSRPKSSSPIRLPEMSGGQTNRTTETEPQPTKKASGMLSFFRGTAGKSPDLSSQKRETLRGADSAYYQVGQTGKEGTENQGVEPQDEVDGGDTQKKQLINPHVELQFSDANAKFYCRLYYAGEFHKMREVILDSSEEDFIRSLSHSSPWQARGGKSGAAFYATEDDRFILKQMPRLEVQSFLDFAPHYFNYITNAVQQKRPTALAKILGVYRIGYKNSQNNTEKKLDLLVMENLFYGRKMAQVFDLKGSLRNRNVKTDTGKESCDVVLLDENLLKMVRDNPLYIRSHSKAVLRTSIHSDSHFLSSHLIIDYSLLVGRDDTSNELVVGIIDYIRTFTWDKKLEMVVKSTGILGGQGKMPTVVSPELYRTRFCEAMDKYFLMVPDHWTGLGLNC
T2 sequence (P42336 whole entry): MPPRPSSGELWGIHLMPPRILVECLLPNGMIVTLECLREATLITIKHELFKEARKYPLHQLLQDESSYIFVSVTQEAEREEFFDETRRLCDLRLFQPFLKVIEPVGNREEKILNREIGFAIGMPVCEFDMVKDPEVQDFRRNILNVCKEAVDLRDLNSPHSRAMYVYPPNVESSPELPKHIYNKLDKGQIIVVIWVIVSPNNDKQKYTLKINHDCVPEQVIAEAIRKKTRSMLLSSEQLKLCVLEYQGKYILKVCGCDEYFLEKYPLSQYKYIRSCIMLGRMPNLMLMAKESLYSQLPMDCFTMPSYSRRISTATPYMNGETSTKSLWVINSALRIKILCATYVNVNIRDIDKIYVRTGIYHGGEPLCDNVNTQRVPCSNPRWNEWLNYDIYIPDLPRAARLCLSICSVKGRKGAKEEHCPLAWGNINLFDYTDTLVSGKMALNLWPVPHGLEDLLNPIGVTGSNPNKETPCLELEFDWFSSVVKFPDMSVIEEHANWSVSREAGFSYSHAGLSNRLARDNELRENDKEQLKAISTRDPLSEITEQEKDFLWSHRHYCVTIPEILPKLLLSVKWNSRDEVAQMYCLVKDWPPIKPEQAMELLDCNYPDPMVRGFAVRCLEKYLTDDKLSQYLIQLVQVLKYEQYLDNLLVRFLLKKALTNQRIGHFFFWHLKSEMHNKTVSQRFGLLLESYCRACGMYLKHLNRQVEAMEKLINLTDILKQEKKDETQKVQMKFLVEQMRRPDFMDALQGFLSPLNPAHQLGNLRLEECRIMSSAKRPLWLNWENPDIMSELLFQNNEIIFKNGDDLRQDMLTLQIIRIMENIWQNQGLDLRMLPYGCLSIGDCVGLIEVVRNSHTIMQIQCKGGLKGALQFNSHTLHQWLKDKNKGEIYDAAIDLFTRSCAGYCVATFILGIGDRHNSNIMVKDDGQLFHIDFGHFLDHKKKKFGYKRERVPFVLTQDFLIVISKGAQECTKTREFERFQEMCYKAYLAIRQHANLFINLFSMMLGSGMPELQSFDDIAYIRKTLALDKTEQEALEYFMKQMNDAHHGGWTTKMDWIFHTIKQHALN
T2 sequence (P27986 whole entry partner): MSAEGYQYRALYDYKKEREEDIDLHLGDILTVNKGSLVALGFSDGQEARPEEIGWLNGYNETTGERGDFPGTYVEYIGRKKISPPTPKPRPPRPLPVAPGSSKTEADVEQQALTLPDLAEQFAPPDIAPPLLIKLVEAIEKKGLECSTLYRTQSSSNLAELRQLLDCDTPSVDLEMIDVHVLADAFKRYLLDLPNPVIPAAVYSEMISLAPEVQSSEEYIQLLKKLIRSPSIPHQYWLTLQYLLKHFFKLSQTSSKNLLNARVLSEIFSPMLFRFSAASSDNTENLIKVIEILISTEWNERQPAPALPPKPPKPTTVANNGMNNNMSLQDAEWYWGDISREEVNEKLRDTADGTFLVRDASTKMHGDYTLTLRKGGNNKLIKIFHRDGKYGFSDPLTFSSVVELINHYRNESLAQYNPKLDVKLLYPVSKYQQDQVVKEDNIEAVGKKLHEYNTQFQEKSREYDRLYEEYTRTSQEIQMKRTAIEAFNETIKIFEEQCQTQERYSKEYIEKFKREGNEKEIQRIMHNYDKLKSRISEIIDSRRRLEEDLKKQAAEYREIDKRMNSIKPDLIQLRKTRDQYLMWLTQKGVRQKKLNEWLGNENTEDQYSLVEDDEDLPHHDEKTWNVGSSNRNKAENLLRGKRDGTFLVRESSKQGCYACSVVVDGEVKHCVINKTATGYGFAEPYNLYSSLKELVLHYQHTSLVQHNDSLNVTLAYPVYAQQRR

As for `CCNC(=O)c1cc2nc(-n3cc(-c4cccc(C)c4)cn3)nc(N3CCOCC3)c2o1` [Compound 101, N-ethyl-4-morpholino-2-(4-(m-tolyl)-1H-pyrazol-1-yl)furo[3,2-d]pyrimidine-6-carboxamide], the IC50 in experiment [1] came to 0.0029 µM. Moreover, the EC50 in experiment [2] amounted to 1 µM.
For `Cc1cccc(-c2cnn(-c3nc(N4CCOCC4)c4oc(C(=O)NC5CC5)cc4n3)c2)c1` [Compound 100, N-cyclopropyl-4-morpholino-2-(4-(m-tolyl)-1H-pyrazol-1-yl)furo[3,2-d]pyrimidine-6-carboxamide], the concentration for half-maximal inhibition (IC50) in experiment [1] was determined as 0.0012 µM. In addition, the EC50 turned out to be 18 nM in experiment [3] and 0.3 µM in experiment [2].
As to `CCNC(=O)c1cc2nc(Nc3cc(-c4ccccc4)[nH]n3)nc(N3CCOCC3)c2o1` [Compound 56, N-ethyl-4 morpholino-2-[(5-phenyl-1H-pyrazol-3-yl)amino]furo[3,2-d]pyrimidine-6-carboxamide, hydrogen chloride], the IC50 in experiment [1] was determined as 0.002 µM. The 50% effective concentration (EC50) was 15 nM in experiment [3] and 1 µM in experiment [2].
As to `CNC(=O)c1cc2nc(Nc3cc(C4CCCC4)n[nH]3)nc(N3CCOCC3)c2o1` [Compound 83, 2-((5-cyclopentyl-1H-pyrazol-3-yl)amino)-N-methyl-4-morpholinofuro[3,2-d]pyrimidine-6-carboxamide, hydrogen chloride], the concentration for half-maximal inhibition (IC50) in experiment [1] amounted to 4.09 µM; at PI3Kα, 3.72 µM.
With `Cc1cccc(-c2cnn(-c3nc(N4CCOCC4)c4oc(C(=O)NC5COC5)cc4n3)c2)c1` [Compound 106, 4-morpholino-N-(oxetan-3-yl)-2-(4-(m-tolyl)-1H-pyrazol-1-yl)furo[3,2-d]pyrimidine-6-carboxamide], the 50% inhibitory concentration (IC50) in experiment [1] was 0.0102 µM. Also, the concentration for a half-maximal effect (EC50) in experiment [3] amounted to 53.5 nM; in experiment [2], 1 µM.
`Cc1cccc(-c2cnn(-c3nc(N4CCOCC4)c4oc(-c5cccnc5)cc4n3)c2)c1` [Compound 102, 4-morpholino-6-(pyridin-3-yl)-2-(4-(m-tolyl)-1H-pyrazol-1-yl)furo[3,2-d]pyrimidine]: the IC50 in experiment [1] amounted to 0.0121 µM. Further, the concentration giving a half-maximal response (EC50) in experiment [3] stood at 43 nM; in experiment [2], 1 µM.
Take `CCc1cc(Nc2nc(N3CCOCC3)c3oc(C(=O)NC)cc3n2)[nH]n1` [Compound 87, 2-((5-ethyl-1H-pyrazol-3-yl)amino)-N-methyl-4-morpholinofuro[3,2-d]pyrimidine-6-carboxamide, hydrogen chloride]: the IC50 is no less than 20 µM in experiment [1] and 3.48 µM at PI3Kα.
As to `Cc1cccc(-c2cnn(-c3nc(N4CCOCC4)c4oc(-c5ccncn5)cc4n3)c2)c1` [Compound 143, 4-morpholino-6-(pyrimidin-4-yl)-2-(4-(m-tolyl)-1H-pyrazol-1-yl)furo[3,2-d]pyrimidine], the half-inhibitory concentration (IC50) in experiment [1] amounted to 0.025 µM. Moreover, the EC50 in experiment [3] was 48 nM; in experiment [2], 1 µM.
Take `Cc1cccc(-c2cnn(-c3nc(N4CCOCC4)c4oc(-c5ccccn5)cc4n3)c2)c1` [Compound 103, 4-morpholino-6-(pyridin-2-yl)-2-(4-(m-tolyl)-1H-pyrazol-1-yl)fur[3,2-d]pyrimidine]: the concentration for half-maximal inhibition (IC50) in experiment [1] came out at 0.0112 µM. Also, the EC50 in experiment [2] turned out to be 1 µM.
For the compound `Cc1cccc(-c2cc(Nc3nc(N4CCOCC4)c4oc(-c5ccncc5)cc4n3)[nH]n2)c1` [Compound 3, 4-morpholino-N-[5-(m-tolyl)-1H-pyrazol-3-yl]-6-(4-pyridyl)furo[3,2-d]pyrimidin-2-amine, hydrogen chloride], the 50% inhibitory concentration (IC50) in experiment [1] came to 0.0008 µM. The concentration giving a half-maximal response (EC50) came to 16 nM in experiment [3] and 3 µM in experiment [2].
Take `Cc1cccc(-c2ccn(-c3nc(N4CCOCC4)c4oc(-c5ccccn5)cc4n3)n2)c1` [Compound 91, 4-morpholino-6-(pyridin-2-yl)-2-(3-(m-tolyl)-1H-pyrazol-1-yl)furo[3,2-d]pyrimidine]: the IC50 in experiment [1] worked out at 0.0039 µM. Moreover, the 50% effective concentration (EC50) was 24.5 nM in experiment [3] and 1 µM in experiment [2].
Turning to `Cc1cccc(-c2cnn(-c3nc(N4CCOCC4)c4oc(C(=O)NCC5COC5)cc4n3)c2)c1` [Compound 107, 4-morpholino-N-(oxetan-3-ylmethyl)-2-(4-(m-tolyl)-1H-pyrazol-1-yl)furo[3,2-d]pyrimidine-6-carboxamide], the IC50 in experiment [1] is 0.0019 µM. Further, the EC50 in experiment [3] came out at 59.5 nM; in experiment [2], 1 µM.

Broadly, the IC50 is the midpoint of a concentration-inhibition curve. The term EC50 denotes the midpoint of the concentration-response curve.
